From patent US20250145665A1, “MACROCYCLIC PEPTIDES USEFUL AS MODULATORS OF TNF ALPHA” (Bristol-Myers Squibb Company, priority 2023, published 2025)
pIC50: −log10 of the molar value. Starred links: 1 amine or outer side, 2 acyl side, 3 side chain; linkers in the order of their positions; H or OH if unused. Positions of bridges follow the written chain, without caps; N, C: chain ends. Non-standard residues stand in square brackets, D forms with d. Residues, ends and D or L forms follow the SMILES beside them. ξ: configuration not given here. Bip(4'-NHCO-C6H4-3-CH2COOH) = N[C@@H](Cc1ccc(-c2ccc(NC(=O)c3cccc(CC(=O)O)c3)cc2)cc1)C(=O)O; X2 = O=C(O)c1ccc(CNC(=O)c2cccc(-c3ccc(C[C@H](N[*:1])C(=O)[*:2])cc3)c2)cc1; dArg(Nω-CH2C6H4-3-CH2Gua) = N=C(N)NCc1cccc(CNC(=N)NCCC[C@@H](N)C(=O)O)c1; X47 = O=C(Nc1ccc(-c2ccc(C[C@H](N[*:1])C(=O)[*:2])cc2)cc1)c1coc2ccccc12; Bip(4'-COOH) = N[C@@H](Cc1ccc(-c2ccc(C(=O)O)cc2)cc1)C(=O)O; Bip(4'-NHAc) = CC(=O)Nc1ccc(-c2ccc(C[C@H](N)C(=O)O)cc2)cc1; Ala(imidazol-2-yl) = N[C@@H](Cc1ncc[nH]1)C(=O)O; Ala(morpholin-4-yl) = N[C@@H](CN1CCOCC1)C(=O)O; Bip = N[C@@H](Cc1ccc(-c2ccccc2)cc1)C(=O)O; Phe(4-NH2) = Nc1ccc(C[C@H](N)C(=O)O)cc1; Ala(4-THP) = N[C@@H](CC1CCOCC1)C(=O)O; h4Pal = N[C@@H](CCc1ccncc1)C(=O)O; 2Pal = N[C@@H](Cc1ccccn1)C(=O)O; Cha = N[C@@H](CC1CCCCC1)C(=O)O; Chg = N[C@H](C(=O)O)C1CCCCC1; Tle = CC(C)(C)[C@H](N)C(=O)O; ξV = CC(C)C(N)C(=O)O; Sar = CNCC(=O)O

Target: TNFα (Homo sapiens, UniProt P01375)
Sequence (P01375 77-233 limits assumed): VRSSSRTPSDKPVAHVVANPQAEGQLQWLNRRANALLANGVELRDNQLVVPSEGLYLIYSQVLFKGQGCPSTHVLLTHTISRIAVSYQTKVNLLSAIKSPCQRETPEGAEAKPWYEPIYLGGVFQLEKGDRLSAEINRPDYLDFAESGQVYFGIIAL
Assay: TNF-Induced HEK-Blue Assay
Type: cell-based
Details: HEK-Blue-CD40L cells, NF-kB-driven secreted alkaline phosphatase reporter; TNFα 0.5 ng/ml; 18 h; read-out: TNF induced HEK-Blue assay IC50 value

pIC50	SMILES
> 7.30	CC(=O)Nc1ccc(-c2ccc(C[C@@H]3NC(=O)[C@H](Cc4ccc(-c5ccccc5)cc4)NC(=O)[C@H](CN4CCOCC4)NC(=O)CSC[C@@H](C(=O)NCC(N)=O)NC(=O)[C@H](CC(C)C)NC(=O)[C@H](CCCNC(=N)N)NC(=O)[C@H](C4CCCCC4)NC(=O)[C@@H]4CCCN4C(=O)[C@H](C(C)C)NC(=O)[C@@H](CCCNC(=N)N)NC(=O)[C@H](CC(=O)O)NC(=O)[C@H](Cc4ccccn4)NC(=O)CN(C)C3=O)cc2)cc1 [Example 201] ({CH2CO}-[Ala(morpholin-4-yl)][Bip][Bip(4'-NHAc)][Sar][2Pal]D[dR]VP[Chg]RLCG-NH2; thioether N-13)
5.70 to 6.70	CC(C)C[C@@H]1NC(=O)[C@H](Cc2ccc(O)cc2)NC(=O)[C@H](C(C)C)NC(=O)[C@@H]2CCCN2C(=O)[C@H](Cc2ccc(N)cc2)NC(=O)[C@H](CCCNC(=N)N)NC(=O)[C@H](CC(=O)O)NC(=O)[C@@H]2CCCN2C(=O)CN(C)C(=O)[C@H](Cc2ccc(-c3ccccc3)cc2)NC(=O)[C@H](Cc2ccc(-c3ccccc3)cc2)NC(=O)[C@H](CN2CCOCC2)NC(=O)CSC[C@@H](C(=O)NCC(N)=O)NC1=O [Example 113] ({CH2CO}-[Ala(morpholin-4-yl)][Bip][Bip][Sar]PDR[Phe(4-NH2)]PVYLCG-NH2; thioether N-13)
> 7.30	CC[C@H](C)[C@@H]1NC(=O)[C@@H](CCCNC(=N)N)NC(=O)[C@H](CC(=O)O)NC(=O)[C@H](Cc2ccccc2)NC(=O)CN(C)C(=O)[C@H](Cc2ccc(-c3ccc(NC(C)=O)cc3)cc2)NC(=O)[C@H](Cc2ccc(-c3ccc(C(=O)O)cc3)cc2)NC(=O)[C@H](C(C)(C)C)NC(=O)CSC[C@@H](C(=O)NCC(N)=O)NC(=O)[C@H](CC(C)C)NC(=O)[C@H](CCCNC(=N)N)NC(=O)[C@H](C2CCCCC2)NC(=O)[C@@H]2CCCN2C1=O [Example 268] ({CH2CO}-[Tle][Bip(4'-COOH)][Bip(4'-NHAc)][Sar]FD[dR]IP[Chg]RLCG-NH2; thioether N-13)
5.70 to 6.70	CC(C)C[C@@H]1NC(=O)[C@H](Cc2ccc(O)cc2)NC(=O)[C@H](C(C)C)NC(=O)[C@@H]2CCCN2C(=O)[C@H](Cc2ccc(N)cc2)NC(=O)[C@H](CCCNC(=N)N)NC(=O)[C@H](CC(=O)O)NC(=O)[C@H](Cc2ccc(O)cc2)NC(=O)CN(C)C(=O)[C@H](Cc2ccc(-c3ccccc3)cc2)NC(=O)[C@H](Cc2ccc(-c3ccccc3)cc2)NC(=O)[C@H](CN2CCOCC2)NC(=O)CSC[C@@H](C(=O)NCC(N)=O)NC1=O [Example 112] ({CH2CO}-[Ala(morpholin-4-yl)][Bip][Bip][Sar]YDR[Phe(4-NH2)]PVYLCG-NH2; thioether N-13)
6.70 to 7.30	CC[C@H](C)[C@@H]1NC(=O)[C@@H]2CCCN2C(=O)[C@H]([C@@H](C)CC)NC(=O)[C@@H](CCCNC(=N)N)NC(=O)[C@H](CC(=O)O)NC(=O)[C@H](Cc2ccccc2)NC(=O)CN(C)C(=O)[C@H](Cc2ccc(-c3ccc(NC(=O)c4coc5ccccc45)cc3)cc2)NC(=O)[C@H](Cc2ccc(-c3ccccc3)cc2)NC(=O)[C@H](CC2CCCCC2)NC(=O)CSC[C@@H](C(=O)NCC(N)=O)NC(=O)[C@H](CC(C)C)NC(=O)[C@H](Cc2ncc[nH]2)NC1=O [Example 401] ({CH2CO}-[Cha][Bip][X47][Sar]FD[dR]IPI[Ala(imidazol-2-yl)]LCG-NH2; thioether N-13)
5.70 to 6.70	CC(C)C[C@@H]1NC(=O)[C@H](CCCNC(=N)N)NC(=O)C(C(C)C)NC(=O)[C@@H]2CCCN2C(=O)[C@H](C(C)C)NC(=O)[C@@H](CCCNC(=N)N)NC(=O)[C@H](CC(=O)O)NC(=O)[C@@H]2CCCN2C(=O)CN(C)C(=O)[C@H](Cc2ccc(-c3cccc(C(=O)NCc4ccc(C(=O)O)cc4)c3)cc2)NC(=O)[C@H](Cc2ccc(-c3ccccc3)cc2)NC(=O)[C@H](CC2CCOCC2)NC(=O)CSC[C@@H](C(=O)NCC(N)=O)NC1=O (some centres unmarked) [Example 303] ({CH2CO}-[Ala(4-THP)][Bip][X2][Sar]PD[dR]VP[ξV]RLCG-NH2; thioether N-13)
6.70 to 7.30	CC(C)C[C@@H]1NC(=O)[C@H](CCCNC(=N)N)NC(=O)[C@H](C(C)C)NC(=O)[C@@H]2CCCN2C(=O)[C@H](C(C)C)NC(=O)[C@@H](CCCNC(=N)NCc2cccc(CNC(=N)N)c2)NC(=O)[C@H](CC(=O)O)NC(=O)[C@@H]2CCCN2C(=O)CN(C)C(=O)[C@H](Cc2ccc(-c3ccc(NC(=O)c4cccc(CC(=O)O)c4)cc3)cc2)NC(=O)[C@H](Cc2ccc(-c3ccccc3)cc2)NC(=O)[C@H](CN2CCOCC2)NC(=O)CSC[C@@H](C(=O)NCC(N)=O)NC1=O [Example 570] ({CH2CO}-[Ala(morpholin-4-yl)][Bip][Bip(4'-NHCO-C6H4-3-CH2COOH)][Sar]PD[dArg(Nω-CH2C6H4-3-CH2Gua)]VPVRLCG-NH2; thioether N-13)
> 7.30	CC(C)C[C@@H]1NC(=O)[C@H](CCc2ccncc2)NC(=O)[C@H](C(C)C)NC(=O)[C@@H]2CCCN2C(=O)[C@H](C(C)C)NC(=O)[C@@H](CCCNC(=N)N)NC(=O)[C@H](CC(=O)O)NC(=O)[C@H](Cc2ccc(O)cc2)NC(=O)CN(C)C(=O)[C@H](Cc2ccc(-c3ccccc3)cc2)NC(=O)[C@H](Cc2ccc(-c3ccccc3)cc2)NC(=O)[C@H](CN2CCOCC2)NC(=O)CSC[C@@H](C(=O)NCC(N)=O)NC1=O [Example 155] ({CH2CO}-[Ala(morpholin-4-yl)][Bip][Bip][Sar]YD[dR]VPV[h4Pal]LCG-NH2; thioether N-13)
